{"source": "patent US6458557B1", "about": "“Enhancing growth in gram-positive microorganisms using formate supplementation and inactivation of formate-associated transport proteins” (Genencor International, Inc., priority 1997, dated 2002)", "key": {"[1]": {"test_system": "Bacillus subtilis (BG125)", "assay": "Metabolic by-products (HPLC) and glucose in shake flask supernatants", "type": "cell-based", "conditions": "flasks of FIG. 5: 3 g/l sodium formate, 80 mM MOPS; control about 1.5 g/L", "description": "(§1) Prior to shake flask experiments BG125 was grown from frozen stocks onto LB agar and grown overnight at 37° C. Cells were removed from the plates to 6 mls of SBG1% in test-tubes and grown at 37° C. for three hours. 0.2 mls of the seed culture was used to inoculate a pre-warmed 300 ml nephlometer flask containing 20 mls of the appropriate media. Flasks were incubated at 37° C. (except where indicated) and 300 rpm in a New Brunswick Scientific Shaker. […] The sample was spun in an eppendorf microfuge and 1 ml of supernatant was removed and mixed with 30 μls of perchloric acid HPLC analysis. The remaining supernatant was saved for glucose analysis. All samples were stored at −70° C. until analysis. Medium pH titrations were performed by the stepwise addition of HCl followed by pH measurement. The bactericidal tests of pH and formate on B. subtilis were carried out by growing BG125 as described above in SBG1% to a density of 5×10^6 cfu/ml. The cells were then adjusted to a concentration of 5×10^4 cfu/ml with buffered SBG1% adjusted to the pH indicated, with and without 50 mM formate. Cultures were then incubated at 37° C. with shaking for 3 hours. Samples were taken at 0, 1 2 and 3 hours, serially diluted and plated to LB at 37° C. for determination of cell viability."}, "[2]": {"test_system": "Bacillus subtilis (BG125)", "assay": "Shake flask growth of BG125 in 1% SBG (Klett reading and flask pH)", "type": "cell-based", "conditions": "for growth in shake flask compared to other flasks: 1% SBG pH 7, 37° C., 3 g/l (44 mM) sodium formate and/or 80 mM MOPS (FIG. 5)", "description": "(§2) The Bacillus subtilis strain used was a derivative of I168 called BG125 (hisA1 thr5 trpC2) provided by J. A. Hoch. […] MM294 competent cells (Ausubel et al. 1992, Short Protocols in Molecular Biology. John Wiley and Sons, New York) were used for plasmid construction and propagation. LB broth and agar were used for growing MM294 cells and were supplemented with 50 ug/ml carbenicillin for selection. BG125 was grown on LB agar or in LB liquid medium supplemented with 10 μg/ml of kanamycin for selection.\nTrimethaprim was dissolved in 50% ethanol and added to a final concentration of 50 ug/ml where indicated when the growth had reached a Klett reading between 20-30 units. The additions for trimethaprim experiments were added at the following final concentrations: 10 ug/ml glycine, 10 ug/ml methionine, 50 ug/ml thymidine, 20 ug/ml adenosine, and 20 ug/ml guanosine.\n(§3) Prior to shake flask experiments BG125 was grown from frozen stocks onto LB agar and grown overnight at 37° C. Cells were removed from the plates to 6 mls of SBG1% in test-tubes and grown at 37° C. for three hours. 0.2 mls of the seed culture was used to inoculate a pre-warmed 300 ml nephlometer flask containing 20 mls of the appropriate media. Flasks were incubated at 37° C. (except where indicated) and 300 rpm in a New Brunswick Scientific Shaker. At the indicated time points, the amount of cell growth was determined by a Klett-Summerson Photoelectric Colorimeter, the pH of the flask was taken using a Corning pH/iometer, and 1.25 mls was removed for further processing. The sample was spun in an eppendorf microfuge and 1 ml of supernatant was removed and mixed with 30 μls of perchloric acid HPLC analysis. The remaining supernatant was saved for glucose analysis. All samples were stored at −70° C. until analysis. Medium pH titrations were performed by the stepwise addition of HCl followed by pH measurement. The bactericidal tests of pH and formate on B. subtilis were carried out by growing BG125 as described above in SBG1% to a density of 5×10^6 cfu/ml. The cells were then adjusted to a concentration of 5×10^4 cfu/ml with buffered SBG1% adjusted to the pH indicated, with and without 50 mM formate. Cultures were then incubated at 37° C. with shaking for 3 hours. Samples were taken at 0, 1 2 and 3 hours, serially diluted and plated to LB at 37° C. for determination of cell viability."}, "[3]": {"assay": "Medium pH titration by stepwise addition of HCl", "type": "physicochemical", "conditions": "1% SBG with 3 g/l sodium formate or 80 mM MOPS, HCl added (FIG. 6)", "description": "as §1"}, "[4]": {"test_system": "BG125 with yrhG (FTAP 1) gene interruption", "assay": "Shake flask growth of BG125 with interruption of yrhG (FTAP 1)", "type": "cell-based, Bacillus subtilis", "conditions": "1% SBG, 3 g/l formate", "source_text": "(§4) The PCR product was digested with BamHI and PstI and ligated with the 5.3-Kb BamHI-PstI fragment from plasmid pUC/Ts/Kan to construct the yrhG-homologue interruption plasmid pTRANS1. […] The PCR product was digested with BamHI and PstI and ligated with the 5.3-Kb BamHI-PstI fragment from plasmid pUC/Ts/Kan to construct the ywcJ-homologue interruption plasmid. […] The sequencing primers used were the mp19/pUC19 24-mer reverse sequencing primer and the mp19/pUC19 24-mer sequencing primer from New England Biolabs.\n(§5) Resulting kanamycin resistant transformants were grown overnight in LB liquid medium containing kanamycin at 45° C. Integrants were plated and then colony purified on LB plates containing kanamycin at 45° C. Isolated colonies were then frozen in LB liquid medium plus 30% glycerol at −70° C. for preservation.\n(§6) Prior to shake flask experiments BG125 was grown from frozen stocks onto LB agar and grown overnight at 37° C. Cells were removed from the plates to 6 mls of SBG1% in test-tubes and grown at 37° C. for three hours. 0.2 mls of the seed culture was used to inoculate a pre-warmed 300 ml nephlometer flask containing 20 mls of the appropriate media. Flasks were incubated at 37° C. (except where indicated) and 300 rpm in a New Brunswick Scientific Shaker. […]"}, "[5]": {"test_system": "Bacillus subtilis (BG125)", "assay": "Bactericidal tests of pH and formate (cell viability by plating)", "type": "cell-based", "description": "as §2, §3"}, "[6]": {"test_system": "BG125 with ywcJ (FTAP 2) gene interruption", "assay": "Shake flask growth of BG125 with interruption of ywcJ (FTAP 2)", "type": "cell-based, Bacillus subtilis", "conditions": "1% SBG, 3 g/l formate, ywcJ (FTAP 2) interruption (FIG. 17)", "source_text": "as §4, §5, §6"}}, "data": [{"compound": "O=S(=O)(O)CCCN1CCOCC1", "note": "[MOPS, reference compound]", "values": [{"measurement": "acetate level reached", "setting": "[1]", "value": "~2", "unit": "g/L"}, {"measurement": "growth in shake flask compared to other flasks", "setting": "[2]", "value": "near the levels of the formate containing flask"}, {"measurement": "buffering activity in pH titration", "setting": "[3]", "value": "showed buffering activity in the expected range"}]}, {"compound": "O=C[O-].[Na+]", "note": "[sodium formate, Sodium formate]", "values": [{"measurement": "decrease in the growth enhancement normally seen with exogenous formate", "setting": "[4]; yrhG (FTAP1) interruption (FIG. 16)", "value": "~50", "unit": "%"}, {"measurement": "growth enhancement effect of formate in interrupted strain", "setting": "[4]; yrhG interruption (FIG. 16)", "value": "reduced the normal growth enhancement effect of formate by half"}, {"measurement": "growth in shake flask compared to other flasks", "setting": "[2]", "value": "more total growth"}, {"measurement": "lag in the initial growth rate", "setting": "[2]; 3 g/l sodium formate, 1% SBG", "value": "slight lag"}, {"measurement": "rate of growth when formate was added", "setting": "[2]; flask containing trimethaprim and growth enhancing additives (FIG. 11)", "value": "significantly reduced"}, {"measurement": "duration of the initial lag period", "setting": "[2]; higher concentrations of sodium formate, up to 21 g/l (FIG. 7)", "value": "correlation between increasing concentrations of formate and the duration of the initial lag period"}, {"measurement": "culture density reached after the lag period", "setting": "[2]; sodium formate up to 21 g/l (FIG. 7), versus control flask", "value": "reached higher densities than the control flask"}, {"measurement": "loss of viability", "setting": "[5]; pH 3.6, 50 mM formate, also without formate", "value": "lost complete viability within two hours"}, {"measurement": "percent of survivors based on the initial titer", "setting": "[5]; pH 3.6, one hour, 50 mM formate, 1.8 % without formate", "value": 0.13, "unit": "%"}, {"measurement": "percent survivors", "setting": "[5]; pH 4.0, 3 hours, 50 mM formate, 38 % without formate", "value": 1.2, "unit": "%"}, {"measurement": "viability", "setting": "[5]; pH 4.6, 50 mM formate", "value": "no decline in viability"}, {"measurement": "viability", "setting": "[5]; pH 7.0, 50 mM formate", "value": "no decline of viability"}, {"measurement": "buffering activity in pH titration", "setting": "[3]", "value": "little buffering activity down to pH 5.0"}, {"measurement": "effect of formate on growth of interrupted strain", "setting": "[6]", "value": "toxic effect which caused a decline of growth well below growth of the control strain with out formate"}]}, {"compound": "COc1cc(Cc2cnc(N)nc2N)cc(OC)c1OC", "note": "[trimethaprim, Trimethaprim, reference compound]", "values": [{"measurement": "effect on growth compared to SBG1% alone", "setting": "[2]; trimethaprim 50 ug/ml added at Klett 20-30, SBG1% (FIG. 11)", "value": "inhibitory effect"}]}]}
